Measurements from US10676485B2, “Macrocyclic MCL-1 inhibitors and methods of use” (AbbVie Inc., priority 2017, dated 2020).
pKi: −log10 of the molar value. Where two headings read alike, the source gives them in different places.

Key:
GST-MCL-1 = GST-MCL-1 (Homo sapiens (Human), UniProt Q07820); experiment: TR-FRET MCL-1 binding assay (competition with probe F-Bak); conditions: for Ki: read-out: MCL-1 Binding Ki (nM, 10% HS), in the presence of 10% HS; for pKi: without HS, read-out: MCL-1 Binding Ki
Method in brief: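 Compounds as 11 three-fold dilutions from 25 μM with GST-MCL-1, F-Bak probe and Tb-anti-His antibody, 2 h at room temperature. TR-FRET at 340 nm excitation, 520/525 nm (F-Bak) and 495/510 nm (Tb) emission. Run without human serum and with 10% HS.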

[1] = system: AMO-1 human multiple myeloma tumor cell line; experiment: AMO-1 cell viability assay (CellTiter-Glo); format: cell-based; conditions: AMO1, read-out: AMO-1 Viability IC50 (μM), 10% FBS, 24 hours of compound treatment
[2] = system: NCI-H929 human multiple myeloma tumor cell line; experiment: NCI-H929 cell viability assay (CellTiter-Glo); format: cell-based; conditions: NCI-H929, read-out: H929 Viability IC50 (μM), 10% FBS, 24 hours of compound treatment
AMO-1 xenograft = AMO-1 xenograft model of multiple myeloma; format: in vivo; conditions: Mus musculus, AMO1, 25 mg/kg/day, IP, QDx1, SCID/bg mice; for change in vivo at 25 mg/kg: read-out: TGD (%); for inhibition in vivo at 25 mg/kg: read-out: TGImax (%)
Method: Tumors were size matched at approximately 200 mm^3. […] Tumor volume was estimated two to three times weekly. […] Mice were euthanized when tumor volume reached 3,000 mm3 or skin ulcerations occurred. Eight mice were housed per cage. Food and water were available ad libitum.
Tumor growth inhibition is calculated by 100*(1−Tv/Cv) where Tv and Cv are the mean tumor volumes of the treated and control groups, respectively.

Sequence of GST-MCL-1 (Q07820 whole entry): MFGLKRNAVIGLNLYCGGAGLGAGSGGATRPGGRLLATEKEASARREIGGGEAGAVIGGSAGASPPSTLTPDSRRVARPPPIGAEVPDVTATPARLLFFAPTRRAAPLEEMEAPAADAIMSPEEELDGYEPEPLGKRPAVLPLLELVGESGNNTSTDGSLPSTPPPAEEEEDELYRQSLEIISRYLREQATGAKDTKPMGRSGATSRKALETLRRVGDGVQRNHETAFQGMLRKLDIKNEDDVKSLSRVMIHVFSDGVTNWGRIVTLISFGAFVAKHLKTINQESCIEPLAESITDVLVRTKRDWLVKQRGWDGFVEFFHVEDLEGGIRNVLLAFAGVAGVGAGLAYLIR

Row | Structure (SMILES) | Ki (GST-MCL-1) [nM] | pKi (GST-MCL-1) | IC50 [1] [µM] | IC50 [2] [µM] | change in vivo at 25 mg/kg (AMO-1 xenograft) [%] | inhibition in vivo at 25 mg/kg (AMO-1 xenograft) [%]
1 | Cc1c(Cl)c2c(Cl)c(C)c1-c1c(-c3ccc(F)cc3)sc3ncnc(c13)O[C@@H](C(=O)O)Cc1cc(ccc1OCc1ccnc(-c3ccccc3OCC3COC(C)(C)O3)n1)OC[C@@H](CN1CCN(C)CC1)O2 (stereo in doubt) [Example 3, (7R,16R)-19,23-dichloro-10-{[2-(2-{[(4R)-2,2-dimethyl-1,3-dioxolan-4-yl]methoxy}phenyl)pyrimidin-4-yl]methoxy}-1-(4-fluorophenyl)-20,22-dimethyl-16-[(4-methylpiperazin-1-yl)methyl]-7,8,15,16-tetrahydro-18,21-etheno-13,9-(metheno)-6,14,17-trioxa-2-thia-3,5-diazacyclononadeca[1,2,3-cd]indene-7-carboxylic acid] | 0.365 | 10.48 | 0.00026 | 0.0037 | 58 | 75
2 | Cc1c(Cl)c2c(Cl)c(C)c1-c1c(-c3ccc(F)cc3)sc3ncnc(c13)O[C@@H](C(=O)O)Cc1cc(ccc1OCc1ccnc(N3CCC(F)(COC[C@@H]4COCCO4)CC3)n1)OC[C@@H](CN1CCN(C)CC1)O2 [Example 8, (7R,16R)-19,23-dichloro-10-({2-[4-({[(2S)-1,4-dioxan-2-yl]methoxy}methyl)-4-fluoropiperidin-1-yl]pyrimidin-4-yl}methoxy)-1-(4-fluorophenyl)-20,22-dimethyl-16-[(4-methylpiperazin-1-yl)methyl]-7,8,15,16-tetrahydro-18,21-etheno-13,9-(metheno)-6,14,17-trioxa-2-thia-3,5-diazacyclononadeca[1,2,3-cd]indene-7-carboxylic acid] | 2.27 | 9.71 | 0.00086 | 0.00176 | 46 | 79
3 | Cc1c(Cl)c2c(Cl)c(C)c1-c1c(-c3ccc(F)cc3)sc3ncnc(c13)O[C@@H](C(=O)O)Cc1cc(ccc1OCc1ccnc(-c3ccc(OC[C@@H]4COCCO4)cc3)n1)OC[C@@H](CN1CCN(C)CC1)O2 [Example 7, (7R,16R)-19,23-dichloro-10-{[2-(4-{[(2S)-1,4-dioxan-2-yl]methoxy}phenyl)pyrimidin-4-yl]methoxy}-1-(4-fluorophenyl)-20,22-dimethyl-16-[(4-methylpiperazin-1-yl)methyl]-7,8,15,16-tetrahydro-18,21-etheno-13,9-(metheno)-6,14,17-trioxa-2-thia-3,5-diazacyclononadeca[1,2,3-cd]indene-7-carboxylic acid] | 0.92 | 10.44 | 0.000171 | 0.000406 | 477 | 99
4 | Cc1c(Cl)c2c(Cl)c(C)c1-c1c(-c3ccc(F)cc3)sc3ncnc(c13)O[C@@H](C(=O)O)Cc1cc(ccc1OCc1ccnc(-c3ccc(OC[C@H]4COC(C)(C)O4)cc3)n1)OC[C@@H](CN1CCN(C)CC1)O2 [Example 1, (7R,16R)-19,23-dichloro-10-{[2-(4-{[(4S)-2,2-dimethyl-1,3-dioxolan-4-yl]methoxy}phenyl)pyrimidin-4-yl]methoxy}-1-(4-fluorophenyl)-20,22-dimethyl-16-[(4-methylpiperazin-1-yl)methyl]-7,8,15,16-tetrahydro-18,21-etheno-13,9-(metheno)-6,14,17-trioxa-2-thia-3,5-diazacyclononadeca[1,2,3-cd]indene-7-carboxylic acid] | 0.582 | 10.38 | 0.00031 | 0.00502 | 133 | 95
5 | Cc1c(Cl)c2c(Cl)c(C)c1-c1c(-c3ccc(F)cc3)sc3ncnc(c13)O[C@@H](C(=O)O)Cc1cc(ccc1OCc1ccnc([C@H]3CC[C@](F)(COC[C@H]4COCCO4)CC3)n1)OC[C@@H](CN1CCN(C)CC1)O2 [Example 39, (7R,16R)-19,23-dichloro-10-({2-[(1S,4s)-4-({[(2R)-1,4-dioxan-2-yl]methoxy}methyl)-4-fluorocyclohexyl]pyrimidin-4-yl}methoxy)-1-(4-fluorophenyl)-20,22-dimethyl-16-[(4-methylpiperazin-1-yl)methyl]-7,8,15,16-tetrahydro-18,21-etheno-13,9-(metheno)-6,14,17-trioxa-2-thia-3,5-diazacyclononadeca[1,2,3-cd]indene-7-carboxylic acid] | 0.06 | 11.40 | 0.000235 | 0.000239 |  | 
6 | Cc1c(Cl)c2c(Cl)c(C)c1-c1c(C3=CCCC3)sc3ncnc(c13)O[C@@H](C(=O)O)Cc1cc(ccc1OCc1ccnc(C3=CC[C@@](F)(COC[C@@H]4COCCO4)CC3)n1)OC[C@@H](CN1CCN(C)CC1)O2 [Example 38, (7R,16R)-19,23-dichloro-1-(cyclopent-1-en-1-yl)-10-({2-[(4R)-4-({[(2S)-1,4-dioxan-2-yl]methoxy}methyl)-4-fluorocyclohex-1-en-1-yl]pyrimidin-4-yl}methoxy)-20,22-dimethyl-16-[(4-methylpiperazin-1-yl)methyl]-7,8,15,16-tetrahydro-18,21-etheno-13,9-(metheno)-6,14,17-trioxa-2-thia-3,5-diazacyclononadeca[1,2,3-cd]indene-7-carboxylic acid] | 0.63 | 10.44 | 0.000267 | 0.000748 |  | 
7 | COc1ccccc1-c1nccc(COc2ccc3cc2C[C@H](C(=O)O)Oc2ncnc4sc(C5=COCCO5)c(c24)-c2c(C)c(Cl)c(c(Cl)c2C)O[C@H](CN2CCN(C)CC2)CO3)n1 [Example 27, (7R,16R)-19,23-dichloro-1-(5,6-dihydro-1,4-dioxin-2-yl)-10-{[2-(2-methoxyphenyl)pyrimidin-4-yl]methoxy}-20,22-dimethyl-16-[(4-methylpiperazin-1-yl)methyl]-7,8,15,16-tetrahydro-18,21-etheno-13,9-(metheno)-6,14,17-trioxa-2-thia-3,5-diazacyclononadeca[1,2,3-cd]indene-7-carboxylic acid] | 0.02 | 11.10 | 0.000435 | 0.0015 |  | 
8 | Cc1c(Cl)c2c(Cl)c(C)c1-c1c(C3=CCCC3)sc3ncnc(c13)O[C@@H](C(=O)O)Cc1cc(ccc1OCc1ccnc([C@H]3CC[C@@](F)(COC[C@@H]4COCCO4)CC3)n1)OC[C@@H](CN1CCN(C)CC1)O2 [Example 37, (7R,16R)-19,23-dichloro-1-(cyclopent-1-en-1-yl)-10-({2-[(1S,4r)-4-({[(2S)-1,4-dioxan-2-yl]methoxy}methyl)-4-fluorocyclohexyl]pyrimidin-4-yl}methoxy)-20,22-dimethyl-16-[(4-methylpiperazin-1-yl)methyl]-7,8,15,16-tetrahydro-18,21-etheno-13,9-(metheno)-6,14,17-trioxa-2-thia-3,5-diazacyclononadeca[1,2,3-cd]indene-7-carboxylic acid] | 0.63 | 10.29 | 0.000187 | 0.00053 |  | 
9 | Cc1c(Cl)c2c(Cl)c(C)c1-c1c(-c3ccc(F)cc3)sc3ncnc(c13)O[C@@H](C(=O)O)Cc1cc(ccc1OCc1nccc(-c3ccc(OC[C@H]4COCCO4)cc3)n1)OC[C@@H](CN1CCN(C)CC1)O2 [Example 23, (7R,16R)-19,23-dichloro-10-{[4-(4-{[(2R)-1,4-dioxan-2-yl]methoxy}phenyl)pyrimidin-2-yl]methoxy}-1-(4-fluorophenyl)-20,22-dimethyl-16-[(4-methylpiperazin-1-yl)methyl]-7,8,15,16-tetrahydro-18,21-etheno-13,9-(metheno)-6,14,17-trioxa-2-thia-3,5-diazacyclononadeca[1,2,3-cd]indene-7-carboxylic acid] | 41 | 8.30 | 0.00315 | 0.00849 |  | 
10 | Cc1c(Cl)c2c(Cl)c(C)c1-c1c(-c3ccc(F)cc3)sc3ncnc(c13)O[C@@H](C(=O)O)Cc1cc(ccc1OCc1ccnc([C@H]3CC[C@@H](OCC4COCCO4)CC3)n1)OC[C@@H](CN1CCN(C)CC1)O2 (stereo partly drawn) [Example 15, (7R,16R)-19,23-dichloro-10-[(2-{(1s,4s)-4-[(1,4-dioxan-2-yl)methoxy]cyclohexyl}pyrimidin-4-yl)methoxy]-1-(4-fluorophenyl)-20,22-dimethyl-16-[(4-methylpiperazin-1-yl)methyl]-7,8,15,16-tetrahydro-18,21-etheno-13,9-(metheno)-6,14,17-trioxa-2-thia-3,5-diazacyclononadeca[1,2,3-cd]indene-7-carboxylic acid] | 0.15 | 10.89 | 0.000156 | 0.000294 |  | 
11 | Cc1c(Cl)c2c(Cl)c(C)c1-c1c(-c3ccc(F)cc3)sc3ncnc(c13)O[C@@H](C(=O)O)Cc1cc(ccc1OCc1ccnc(N3CCC(OC[C@H]4COCCO4)CC3)n1)OC[C@@H](CN1CCN(C)CC1)O2 [Example 10, (7R,16R)-19,23-dichloro-10-{[2-(4-{[(2R)-1,4-dioxan-2-yl]methoxy}piperidin-1-yl)pyrimidin-4-yl]methoxy}-1-(4-fluorophenyl)-20,22-dimethyl-16-[(4-methylpiperazin-1-yl)methyl]-7,8,15,16-tetrahydro-18,21-etheno-13,9-(metheno)-6,14,17-trioxa-2-thia-3,5-diazacyclononadeca[1,2,3-cd]indene-7-carboxylic acid] | 3.07 | 9.46 | 0.000502 | 0.00217 |  | 
